Data taken from patent US9956232B2, “Dialkyl-phosphinoyl-alkane (Dapa) compounds and compositions for treatment of lower gastrointestinal tract disorders” (priority 2016, dated 2018).
Where “and” joins values, the source holds several entries; their conditions need not be identical. Equal values may be shown once. Entries after “also recorded” stand apart in the source; their conditions may differ.

Assays:
TRPM8 [1] = molecular target: T1, TRPM8 (Homo sapiens, UniProt Q7Z2W7); test: TRPM8 assay of DIPA-1-10 at King's College, different assay conditions; assay type: cell-based
Description: [Table 2] […] The data for DIPA-1-10 is not included in the Table 2 or Figure because it was obtained under different assay conditions.
Target sequence in this assay (Q7Z2W7 whole entry, species assumed): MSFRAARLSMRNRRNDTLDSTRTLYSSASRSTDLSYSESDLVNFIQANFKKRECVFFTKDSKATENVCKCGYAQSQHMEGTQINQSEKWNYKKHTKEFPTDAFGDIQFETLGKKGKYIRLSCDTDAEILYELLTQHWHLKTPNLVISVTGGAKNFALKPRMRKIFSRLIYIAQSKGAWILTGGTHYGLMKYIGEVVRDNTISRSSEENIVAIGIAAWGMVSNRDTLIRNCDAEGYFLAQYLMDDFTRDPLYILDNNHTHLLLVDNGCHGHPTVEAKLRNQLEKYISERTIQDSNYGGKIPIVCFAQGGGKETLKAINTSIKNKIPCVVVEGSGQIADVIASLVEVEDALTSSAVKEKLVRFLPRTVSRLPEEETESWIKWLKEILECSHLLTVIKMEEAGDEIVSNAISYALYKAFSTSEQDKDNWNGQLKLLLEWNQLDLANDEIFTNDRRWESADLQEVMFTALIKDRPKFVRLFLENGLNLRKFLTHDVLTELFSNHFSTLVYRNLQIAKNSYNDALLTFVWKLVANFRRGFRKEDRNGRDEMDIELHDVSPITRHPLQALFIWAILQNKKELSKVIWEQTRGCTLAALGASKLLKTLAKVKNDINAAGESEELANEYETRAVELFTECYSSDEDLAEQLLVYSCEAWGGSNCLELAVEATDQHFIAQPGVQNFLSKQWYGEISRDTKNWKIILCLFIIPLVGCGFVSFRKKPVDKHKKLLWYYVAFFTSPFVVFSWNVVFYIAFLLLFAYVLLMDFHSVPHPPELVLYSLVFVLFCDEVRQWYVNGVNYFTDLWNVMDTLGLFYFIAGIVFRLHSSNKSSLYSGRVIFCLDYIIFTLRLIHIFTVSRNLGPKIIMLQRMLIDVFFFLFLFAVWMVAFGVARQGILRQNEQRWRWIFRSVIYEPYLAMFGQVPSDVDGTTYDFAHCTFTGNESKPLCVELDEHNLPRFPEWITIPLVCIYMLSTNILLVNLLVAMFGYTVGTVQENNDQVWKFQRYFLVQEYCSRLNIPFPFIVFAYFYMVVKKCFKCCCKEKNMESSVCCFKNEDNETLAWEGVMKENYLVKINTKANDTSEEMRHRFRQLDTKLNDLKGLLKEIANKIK

TRPM8 [2] = molecular target: T1, TRPM8; details: literature; cited from earlier work
Target sequence in this assay (Q7Z2W7 whole entry, species assumed): as above

isolated mouse vagus = test: Capsaicin-induced depolarization of the isolated vagus nerve
Description: An isolated vagus nerve model was developed at Imperial College, London, U.K. [Birrell et al. TrpA1 agonists evoke coughing in guinea pig and human volunteers. Amer. J. respiratory and critical care medicine 180, 1042-7, 2009; Patel, H. J. et al. Inhibition of guinea-pig and human sensory nerve activity and the cough reflex in guinea-pigs by cannabinoid (CB2) receptor activation. Brit. J. Pharmacol. 140, 261-8, 2003]. In this in vitro assay, segments of the mouse vagus nerve are placed on a platform and the electrical activity is recorded after topical application of capsaicin. Capsaicin is a known irritant that elicits pain when it is applied to the skin and it will depolarize the isolated vagus. […] The similar effect of DAPA-2-5 in this test system was published in U.S. Ser. No. 14/55,042. Briefly, segments of vagus nerve, caudal to the nodose ganglion, were removed from mice with fine forceps and segments placed in oxygenated Krebs solution and bubbled with 95% O2/5% CO2. The desheathed nerve trunk was mounted in a ‘grease-gap’ recording chamber and constantly superfused with Krebs solution with a flow rate of approximately 2 mL/min, and the electrical activity of the nerve monitored with electrodes. The temperature of the perfusate was kept constant at 37° C. by a water bath. Nerve depolarizations were induced by superfusion of the nerve with capsaicin (1 μM). After two reproducible depolarization responses to capsaicin, DIPA-1-7 was applied at 1 mg/mL for 10 minutes in the perfusate followed by capsaicin.

[3] = tested on: heat-induced edema in the anesthetized rat paw; test: Heat-induced edema in the anesthetized rat paw; assay type: in vivo; details: 20 mg/mL, 0.3 mL per paw, 30 min before 58° C. water 1 min; relative to contralateral paw
Description: Inflammation is defined as the reaction of vascularized living tissue to local injury [Cotran, R S. 1989. Inflammation and repair. In Robbins: Pathologic Basis of Disease, ed. S. L. Robbins, R. S. Cotran, V. Kumar, 2:39-86. Philadelphia: Saunders. 4th ed.]. The characteristic signs of inflammation are redness, swelling, heat, and pain (and loss of function). The anti-inflammatory properties of the DAPA compounds were studied in a model of heat-induced vascular leakage [Wei et al. Method of inhibiting inflammatory response. U.S. Pat. No. 4,801,612; Wei et al., Anti-inflammatory peptide agonists. Annual Review Pharmacol Toxicol. 33:9-108, 1993]. When the paws of pentobarbital-anesthetized rats (200 to 300 g body weight) are immersed in 58° C. water for 1 min, the normal paw volume of about 1.8 mL was increased by ˜88% within 30 min, the swelling being due to an increase in water content of the paw.
Test compounds were dissolved in 20% water-80% R-1,2-propanediol at 20 mg/mL. The solutions were applied to the paw skin of pentobarbital-anesthetized rats (200 to 300 g body weight) at 0.3 mL per paw, using a syringe attached to a blunt 21 gauge needle covered at its tip with a piece of polyethylene 60 tubing. After distributing the solution over the paw, the paw was tightly enclosed in a plastic finger cut from a disposable glove. The contralateral paw [control] received only the vehicle. Thirty min after application, both paws were immersed in 58° C. water for 1 min. Thirty min after immersion, both paws were cut at ankle joint with scissors and weighed.
This degree of inhibition is significant for tissue protection as the injury stimulus is of supra-maximal intensity. The DAPA-2-5 effect was apparent to the untrained observer.

[4] = tested on: pentobarbital-anesthetized male rats; test: Shaking frequency (wet-dog shaking) of anesthetized rats after intravenous, perioral or topical delivery; assay type: in vivo; details: anesthetized rat; for Shaking frequency, Intravenous: 2 mg/kg i.v., 2nd trial, counted for 15 min; for Shaking frequency, Perioral: 20 mg/kg by oral gavage, counted for 40 min; for Shaking frequency, Topical: 20 μL pure compound on shaved abdominal skin, counted for 1 hr
Experimental: In experiments conducted here, test compounds were evaluated for “wet-dog shaking” as a model of cooling sensation. Using a standardized procedure, test compounds were compared in their ability to stimulate the shaking response by intravenous injection into a cannulated femoral vein, by perioral administration, and by topical delivery to the abdominal skin.
Each rat was given two injections with a 30 min interval. […] Shaking frequency was counted for 15 min after injection. Shaking was observed immediately after i.v. injection and at least 78% of the total shakes occurred in the first 5 min after injection. The response in the second trial was at least as robust in the first trial, showing the lack of desensitization.
Test compounds were dissolved in saline and administered by oral gavage to pentobarbital-anesthetized male albino rats at 20 mg/kg at a volume of 0.1 mL/100 g body weight [N=3 to 4 rats per compound]. Shaking was counted over a 40 min period and recorded at 10-min intervals.
For topical application of DAPA, the abdominal skin of the anesthetized rat was shaved and 20 μL of the pure DAPA was applied with a micropipette onto a ˜1 cm diameter circle of skin, enclosed with a ring of cream [Baby cream “Nevskaya kosmetika Detskyi” Nevskaya Kosmetika Inc., Saint-Petersburg 192029], as shown in FIG. 5D. The number of shakes was counted for 1 hr after application.

TRPM8 [5] = molecular target: T1, TRPM8; test: TRPM8 receptor agonist assay (Fluo-8 calcium, FLIPR); assay type: cell-based; set-up: host or cells: CHO cells, stably transfected; details: for ×Menthol: TRPM8 relative potency as repeated in Table 4; for Relative Potency: relative to menthol = 1.0 (Table 2)
Experimental: Compounds were tested on (CHO) cells stably transfected with human TRPM8 cDNAs using a Fluo-8 calcium kit and a Fluorescence Imaging Plate Reader ([…]™) instrument. […] Solutions were prepared by diluting stock solutions in a HEPES-buffered physiological saline (HBPS) solution. Test compound and control formulations were loaded in polypropylene or glass-lined 384-well plates, and placed into the FLIPR instrument (Molecular Devices Corporation, Union City, Calif., USA). Each was tested at 8 concentrations with n=4 replicates per determination. […] For […]™ assay, cells were plated in 384-well black wall, flat clear-bottom microtiter plates (Type: BD Biocoat Poly-D-Lysine Multiwell Cell Culture Plate) at approximately 30,000 cells per well. Cells were incubated at 37° C. overnight to reach a near confluent monolayer appropriate for use in a fluorescence assay. The test procedure was to remove the growth media and to add 40 μL of HBPS containing Fluo-8 for 30 minutes at 37° C. 10 μL of test compound, vehicle, or control solutions in HBPS were added to each well and read for 4 minutes. Concentration-response data were analysed via the FLIPR Control software that is supplied with the FLIPR System (MDS-AT) and fitted to a Hill equation.
Target sequence in this assay (Q7Z2W7 whole entry): as the sequence (Q7Z2W7 whole entry, species assumed) above

TRPA1 [6] = molecular target: T2, TRPA1 (Homo sapiens, UniProt O75762); test: TRPA1 selectivity assay, calcium entry in transfected CHO cells; assay type: cell-based; set-up: expressed in transfected cells; host or cells: CHO cells; details: maximum tested concentration 100 μM
Description: (§1) The selectivity of test compounds were examined on TRPV1 channels (human TRPV1 gene expressed in HEK293 cells) and TRPA1 channels (human TRPA1 gene expressed in CHO cells). The test cells were Chinese Hamster Ovary (CHO) cells or Human Embyronic Kidney (HEK) 293 cells transfected with human TRPV1 or TRPA1 cDNAs.
(§2) The ordinate is given in Relative Fluorescence Units; % of maximum, which measure calcium entry into the transfected cells and the abscissa is the logarithm of the concentration of the test compound.
Target sequence in this assay (O75762 whole entry): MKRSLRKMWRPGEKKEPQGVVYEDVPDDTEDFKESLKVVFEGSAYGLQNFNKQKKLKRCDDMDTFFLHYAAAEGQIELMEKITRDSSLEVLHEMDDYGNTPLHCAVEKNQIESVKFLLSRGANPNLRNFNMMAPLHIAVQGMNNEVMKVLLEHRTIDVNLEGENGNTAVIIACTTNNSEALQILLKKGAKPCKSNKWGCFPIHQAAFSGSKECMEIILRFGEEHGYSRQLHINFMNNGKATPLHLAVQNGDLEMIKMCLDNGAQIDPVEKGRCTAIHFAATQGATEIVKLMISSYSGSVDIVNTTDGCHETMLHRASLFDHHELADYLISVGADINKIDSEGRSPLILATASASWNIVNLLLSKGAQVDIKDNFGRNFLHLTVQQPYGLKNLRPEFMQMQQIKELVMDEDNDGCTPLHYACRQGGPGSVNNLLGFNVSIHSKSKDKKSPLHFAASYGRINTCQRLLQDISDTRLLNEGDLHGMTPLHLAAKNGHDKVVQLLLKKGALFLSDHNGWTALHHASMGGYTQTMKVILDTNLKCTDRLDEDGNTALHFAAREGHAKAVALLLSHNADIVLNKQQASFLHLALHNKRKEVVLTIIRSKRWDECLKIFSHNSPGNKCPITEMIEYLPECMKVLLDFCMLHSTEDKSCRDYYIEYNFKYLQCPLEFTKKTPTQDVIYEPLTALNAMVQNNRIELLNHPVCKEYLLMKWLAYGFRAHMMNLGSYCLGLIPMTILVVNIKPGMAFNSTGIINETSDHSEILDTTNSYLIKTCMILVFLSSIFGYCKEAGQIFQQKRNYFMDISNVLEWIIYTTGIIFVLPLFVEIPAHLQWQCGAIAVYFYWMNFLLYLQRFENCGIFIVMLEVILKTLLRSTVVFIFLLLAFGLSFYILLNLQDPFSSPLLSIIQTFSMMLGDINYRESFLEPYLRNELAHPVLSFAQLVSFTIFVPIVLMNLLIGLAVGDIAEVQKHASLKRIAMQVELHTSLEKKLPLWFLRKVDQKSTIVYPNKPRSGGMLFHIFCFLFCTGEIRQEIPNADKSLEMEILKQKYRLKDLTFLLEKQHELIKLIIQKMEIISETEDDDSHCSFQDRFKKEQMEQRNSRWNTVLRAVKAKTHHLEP

TRPV1 [7] = molecular target: T3, TRPV1 (Homo sapiens, UniProt Q8NER1); test: TRPV1 selectivity assay, calcium entry in transfected HEK293 cells; assay type: cell-based; set-up: expressed in transfected cells; host or cells: HEK293 cells; details: maximum tested concentration 100 μM
Description: as §1, §2
Target sequence in this assay (Q8NER1 whole entry): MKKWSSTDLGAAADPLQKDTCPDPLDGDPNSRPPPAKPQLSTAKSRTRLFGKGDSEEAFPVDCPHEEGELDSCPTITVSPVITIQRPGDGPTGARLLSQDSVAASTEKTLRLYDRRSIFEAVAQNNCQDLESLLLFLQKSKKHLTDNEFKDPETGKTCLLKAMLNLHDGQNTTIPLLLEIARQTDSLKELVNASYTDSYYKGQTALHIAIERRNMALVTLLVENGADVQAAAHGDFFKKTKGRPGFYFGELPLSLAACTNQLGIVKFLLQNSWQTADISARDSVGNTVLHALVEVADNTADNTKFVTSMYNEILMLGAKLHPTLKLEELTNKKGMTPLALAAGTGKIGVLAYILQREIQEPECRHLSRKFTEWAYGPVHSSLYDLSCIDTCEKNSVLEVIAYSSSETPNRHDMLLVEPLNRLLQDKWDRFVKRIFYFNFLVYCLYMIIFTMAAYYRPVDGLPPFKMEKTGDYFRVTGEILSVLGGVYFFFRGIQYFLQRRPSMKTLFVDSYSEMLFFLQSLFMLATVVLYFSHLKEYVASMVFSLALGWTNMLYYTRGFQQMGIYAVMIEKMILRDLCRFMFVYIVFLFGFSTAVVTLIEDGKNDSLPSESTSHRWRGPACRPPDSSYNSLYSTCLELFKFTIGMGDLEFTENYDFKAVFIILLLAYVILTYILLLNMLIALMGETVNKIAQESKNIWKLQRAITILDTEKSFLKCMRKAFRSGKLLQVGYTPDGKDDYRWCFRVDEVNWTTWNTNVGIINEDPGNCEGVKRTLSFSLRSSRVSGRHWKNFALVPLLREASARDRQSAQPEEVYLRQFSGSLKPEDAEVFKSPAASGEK

Strains TA 98 and TA100 = test: Ames test; assay type: cell-based; details: TA 98 and TA100, with and without liver activation
Experimental: Preliminary toxicological studies were conducted on DAPA-2-5 and DAPA-2-7.

[8] = Repeated-dose toxicity in male rats (organ weights, histology); assay type: in vivo, rat; details: 30 mg/kg subcutaneously daily for 7 days, male rats
TRPV1 [9] = molecular target: T3, TRPV1; test: TRPV1 calcium imaging (Fura-2AM) in transfected KNRK cells; assay type: cell-based; set-up: expressed in transfected cells; host or cells: KNRK cells, transient transfection with Lipofectamine 2000; details: KNRK cells transiently transfected with TRPV1
Experimental: (§3) DAPA-1-9 was tested on TRPV1 channels and TRPA1 channels expressed in KNRK cells (Kirsten murine sarcoma virus transformed kidney epithelial cells). KNRK cells were cultured as a monolayer and maintained in DMEM (Life Technologies), supplemented with 10% FBS (Life Technologies), 100 units/ml penicillin and 100 μg/ml streptomycin, in an incubator of 5% CO2 at 37° C. After suspension, the cells were coated on cover slips for 12 hours, then transiently transfected with cDNA (pc3.1 DNA) for TRPV1 or TRPA1 with Lipofectamine 2000 (Invitrogen) for 24 hr, and loaded with Fura-2AM™ (Molecular Probes) for 40 min at 37° C. After washing and recovery, KNRK cells were imaged at 340 and 380 nm excitation to detect free calcium influx. An increase of 50% of the 340/380 ratio was considered as the response threshold which were measured under blinded conditions for plasmids. Compounds were applied to the bath and calcium response was acquired by an inverted Nikon fluorescence microscope with a CoolSnap HQ2 CCD camera (Photometrics, Tucson, Ariz.). Data were quantified offline with the Nikon-NIS program.
Target sequence in this assay (Q8NER1 whole entry, species assumed): as the sequence (Q8NER1 whole entry) above

TRPA1 [10] = molecular target: T2, TRPA1; test: TRPA1 calcium imaging (Fura-2AM) in transfected KNRK cells; assay type: cell-based; set-up: expressed in transfected cells; host or cells: KNRK cells, transient transfection with Lipofectamine 2000; details: KNRK cells transiently transfected with TRPA1
Experimental: as §3
Target sequence in this assay (O75762 whole entry, species assumed): as the sequence (O75762 whole entry) above

CCCCCCCCCCP(=O)(C(C)C)C(C)C [DIPA-1-10]
potency × menthol (TRPM8 [1]): 1.7 ×
times less active than DIPA-1-9 (TRPM8 [1]): 2.4 ×

O=C1NC(c2cccc([N+](=O)[O-])c2)=CCN1c1ccccc1O [Icilin]
TRPM8 agonist potency × menthol (TRPM8 [2]): 200 ×

CCCCCCCP(=O)(C(C)C)C(C)C [DIPA-1-7, 1-Diisopropyl-phosphinoyl-heptane]
inhibition at 1000 µg/mL (isolated mouse vagus; isolated TRPM8 knock-out mouse vagus, 1 mg/mL, capsaicin 1 μM, read-out: percent inhibition of capsaicin-induced depolarization): ~20%
depolarization evoked by the compound by itself (isolated mouse vagus; isolated mouse vagus, no capsaicin): did not evoke depolarization
percent inhibition of capsaicin-induced depolarization (isolated mouse vagus; isolated normal (wild type) mouse vagus, 1 mg/mL superfused 10 min, capsaicin 1 μM): about 75%
Inhibition of Heat Edema (±S.E.M.) [3]: −1.5 ± 2.0%
Shaking frequency, Intravenous [4]: 25 ± 3 shakes
Shaking frequency, Perioral [4]: 36 shakes and 36 ± 4 shakes
Shaking frequency, Topical [4]: 79 ± 8 shakes
×Menthol (TRPM8 [5]): 5.4
Relative Potency (TRPM8 [5]): 5.4
agonist or antagonist activity on TRPA1 channels (TRPA1 [6]): did not exhibit significant agonist on antagonist activity
agonist or antagonist activity on TRPV1 channels (TRPV1 [7]): did not exhibit significant agonist on antagonist activity; also recorded: slight non-dose-dependent agonist action

CCCCCCCP(=O)(C(C)CC)C(C)CC (stereo not drawn) [DAPA-2-7, 1-Di(sec-butyl) phosphinoyl-heptane]
Inhibition of Heat Edema (±S.E.M.) [3]: 5.2 ± 2.1%
Shaking frequency, Intravenous [4]: 15 ± 2 shakes
Shaking frequency, Perioral [4]: 0 shakes
Shaking frequency, Topical [4]: 0 shakes
mutagenicity in the Ames test (Strains TA 98 and TA100): Neither of these compounds was mutagenic
body or organ weights vs vehicle [8]: no significant differences in body or organ weights
heart and liver histology [8]: normal
×Menthol (TRPM8 [5]): 3.4
Relative Potency (TRPM8 [5]): 3.4

CCCCCCCCCP(=O)(C(C)C)C(C)C [DIPA-1-9, 1-[Diisopropyl-phosphinoyl]-nonane]
Shaking frequency, Intravenous [4]: 3 ± 1 shakes
Shaking frequency, Perioral [4]: 0 shakes
Shaking frequency, Topical [4]: 0 shakes
×Menthol (TRPM8 [5]): 4.0
Relative Potency (TRPM8 [5]): 4.0
agonist or antagonist activities against TRPV1 (TRPV1 [9]): devoid of agonist or antagonist activities
agonist or antagonist activities against TRPA1 (TRPA1 [10]): devoid of agonist or antagonist activities
